Experiment: RP, Thermo Scientific Acclaim RSLC 120 C18, 100 × 2.1 mm, 2.2 µm, 30 °C, 0.2 mL/min, estimated dead time 1.1 min; A: 90% water + 10% methanol + 0.01% formic acid + 5 mM ammonium formate, pH 3.61; B: methanol + 0.01% formic acid + 5 mM ammonium formate, pH 3.61; gradient (min/%B) 0/1 1/1 2/39 13/99.9 15/99.9 15.1/1 20.1/1
Details: stereoisomer not certain

Row | Compound | LC retention time [min]
1 | CC(C)(C)C(NC(=O)c1nn(CCCCCF)c2ccccc12)C(N)=O (stereo unspecified) [ADB-PINACA-5F] | 9.86
2 | O=C(O)COCC[N+]1([O-])CCN(C(c2ccccc2)c2ccc(Cl)cc2)CC1 (stereo unspecified) [Cetirizine-N-Oxide] | 9.13
3 | c1ccc2sc(SN3CCOCC3)nc2c1 [2-Morpholinothiobenzothiazole] | 9.85
4 | CC(Cc1ccc(C(C)(C)C)cc1)CN1CC(C)OC(C)C1 (stereo unspecified) [Fenpropimorph] | 10.7
5 | NNC(N)=O [Semicarbazide (SEM)] | 1.33
6 | CN(C)C(=O)Oc1cc(OC(=O)N(C)C)cc(C(O)CNC(C)(C)C)c1 (stereo unspecified) [Bambuterol] | 5.16
7 | CCC(CN(C)C)(CN(C)C)OC(=O)c1ccccc1 [Alypin] | 6.07
8 | CCOCn1c(-c2ccc(Cl)cc2)c(C#N)c(Br)c1C(F)(F)F [Chlorfenapyr] | 11.8
9 | CC(O)Cn1cnc2c1c(=O)n(C)c(=O)n2C (stereo unspecified) [Proxyphylline] | 4.34
10 | N#CC(CCc1ccc(Cl)cc1)(Cn1cncn1)c1ccccc1 (stereo unspecified) [Fenbuconazole] | 10.4
11 | Clc1ccc(C(Cn2ccnc2)OCc2c(Cl)cccc2Cl)c(Cl)c1 (stereo unspecified) [Isoconazole] | 12.3
12 | O=c1[nH]c2ccccc2n1CCCN1CCC(n2c(=O)[nH]c3cc(Cl)ccc32)CC1 [Domperidone] | 6.27
13 | COC(=O)c1ccccc1S(=O)(=O)NC(=O)Nc1nc(C)nc(OC)n1 [Metsulfuron-methyl] | 6.31
14 | CCCCCCCCCCCCN(C)C [N,N-Dimethyldodecylamine] | 10.4
15 | COc1ccc(OC)c(CC(C)N)c1 (stereo unspecified) [2-5-DMA] | 4.78
16 | COc1ccc(CC(C)N)c(OC)c1OC (stereo unspecified) [TMA] | 4.16
17 | CCOC(=O)C(O)(c1ccc(Cl)cc1)c1ccc(Cl)cc1 [Chlorobenzilate] | 11.7
18 | CCc1cccc(C)c1N(C(=O)CS(=O)(=O)O)C(C)C(=O)O (stereo unspecified) | 10.9

Row | Compound | LC retention time [min]
19 | Clc1ccc(C(OCCN2CCCCC2)c2ccccc2)cc1 (stereo unspecified) [Cloperastine] | 8.46
20 | CCCCCn1cc(C(=O)c2cccc3ccccc23)c2c(O)cccc21 [JWH-018-M-4-OH-Ind] | 12.5
21 | CC(N)Cc1ccc(F)cc1 (stereo unspecified) [Amphetamine (4-F-)] | 4.39
22 | CCOC(=O)NCCOc1ccc(Oc2ccccc2)cc1 [Fenoxycarb] | 10.6
23 | CNCC(c1ccc(OC)cc1)C1(O)CCCCC1 (stereo unspecified) [Venlafaxine-N-Desmethyl (norvenlafaxine)] | 6.18
24 | CN1CCN(C=C2N=C3CN=C(c4ccccc4Cl)c4cc([N+](=O)[O-])ccc4N3C2=O)CC1 [Loprazolam] | 6.95
25 | CCOP(=S)(OCC)ON=C(C#N)c1ccccc1 [Phoxim] | 11.2
26 | CCCc1nn(C)c2c(=S)nc(-c3cc(C(=S)N4CCN(C)CC4)ccc3OCC)[nH]c12 [carbodenafil-Dithio-desmethyl] | 11.5
27 | COP(=S)(OC)Oc1ccc(C#N)cc1 [Cyanophos] | 8.27
28 | CCC(CC)COC(C(=O)OCCN(C)C)(c1ccccc1)c1ccccc1 [Denaverine] | 11.6
29 | Cc1nnc2n1-c1ccc([N+](=O)[O-])cc1C(c1ccccc1Cl)=NC2 [Clonazolam] | 7.24
30 | CCN(CC)CCNC(=O)COc1ccc(OC)cc1 [Mefexamide] | 4.31
31 | CCCCNC(=O)NS(=O)(=O)c1ccc(N)cc1 [Carbutamide] | 5.36
32 | CCCCn1cc(C(=O)c2cccc3ccc(C)cc23)c2ccccc21 [JWH-073-2-Methyl] | 12.3
33 | CNC(=O)Oc1ccc(N(C)C)c(C)c1 [Aminocarb  (Metacil)] | 5.15
34 | CON=C1CC2(CC3CC(CC=C(C)CC(C)C=CC=C4COC5C(O)C(C)=CC(C(=O)O3)C45O)O2)OC(C(C)=CC(C)C)C1C (stereo unspecified) [Moxidectin] | 13.8
35 | CCNC(=O)NC(=O)C(C#N)=NOC [Cymoxanil] | 5.6

Other lines, results leading:

Row | LC retention time [min] | Compound
36 | 3.73 | CN1C2CCC1CC(OC(=O)C(O)c1ccccc1)C2 (stereo unspecified) [Homatropine]
37 | 6.96 | COc1ccc(CCNCCCC(C#N)(c2ccc(OC)c(OC)c2)C(C)C)cc1OC (stereo unspecified) [Verapamil-Nor]
38 | 5.99 | CN1CCC(=C2c3ccccc3CCc3cccnc32)CC1 [Azatadine]
39 | 9.01 | CC(C)(C)NCC(O)COc1ccccc1C1CCCC1 (stereo unspecified) [Penbutolol]
40 | 8.05 | COC1=CC(=O)CC(C)C12Oc1c(Cl)c(OC)cc(OC)c1C2=O (stereo unspecified) [Griseofulvin]
41 | 9.36 | OCCN(CCO)c1nc(N2CCCCC2)c2nc(N(CCO)CCO)nc(N3CCCCC3)c2n1 [Dipyridamole]
42 | 12.2 | CC(COc1ccc(C(C)(C)C)cc1)OS(=O)OCCCl (stereo unspecified) [Aramite (total)]
43 | 3.38 | CC(C)(ON=C(C(=O)NC1C(=O)N2C(C(=O)[O-])=C(C[n+]3ccccc3)CSC12)c1csc(N)n1)C(=O)O (stereo unspecified) [Ceftazidime]
44 | 11.2 | COC1C(OC(N)=O)C(O)C(Oc2ccc3c(O)c(NC(=O)c4ccc(O)c(CC=C(C)C)c4)c(=O)oc3c2C)OC1(C)C (stereo unspecified) [Novobiocin]
45 | 7.49 | CCCCc1ncc(C=C(Cc2cccs2)C(=O)O)n1Cc1ccc(C(=O)O)cc1 [Eprosartan]
46 | 3.09 | CC(C)NCC(O)COc1ccc(CC(N)=O)cc1 (stereo unspecified) [Atenolol]
47 | 9.25 | Clc1ccccc1CN1CCc2sccc2C1 [Ticlopidine]
48 | 5.21 | CC1CCN(CCCC(=O)c2ccc(F)cc2)CC1 [Melperone]
49 | 1.79 | NCC1CCC(C(=O)O)CC1 (stereo unspecified) [Tranexamic acid]
50 | 10.8 | Fc1cccc(F)c1-c1nnc(-c2ccccc2Cl)nn1 [Flufenzine (Diflovidazin)]
51 | 9.19 | CCN(CC)CCOC(=O)C(c1ccccc1)C1CCCCC1 (stereo unspecified) [Drofenine]
52 | 5.14 | O=c1[nH]sc2ccccc12 [1,2-Benzisothiazolinone]
53 | 2.87 | NC(=O)c1ccccc1C(=O)O [Phthalamic acid]
54 | 11 | CC(=O)OC1(C(C)=O)CCC2C3CC(C)C4=CC(=O)CCC4(C)C3CCC21C (stereo unspecified) [Medroxyprogesteroneacetate]
55 | 4.86 | COc1cc(C(=O)NCc2ccc(OCCN(C)C)cc2)cc(OC)c1OC [Trimethobenzamide]
56 | 7.41 | CC12CCC(=O)C=C1CCC1C2C(=O)CC2(C)C1CCC2(O)C(=O)CO (stereo unspecified) [Cortisone E  (4-Pregnene-17.21-diol-3.11.20-trione)]
57 | 4.08 | CCCC1CC(C(=O)NC(C(C)O)C2OC(SC)C(O)C(O)C2O)N(C)C1 (stereo unspecified) [Lincomycin]
58 | 3.48 | Nc1ccc(S(=O)(=O)Nc2ncccn2)cc1 [Sulfadiazine]
59 | 5.78 | O=C(O)Cc1c[nH]c2ccccc12 [Indole-3-acetic acid]
60 | 7.41 | CC(=O)Nc1ccc(OC(=O)c2ccccc2OC(C)=O)cc1 [Benorilate]
61 | 9.22 | COC(=O)c1cccc(C)c1S(=O)(=O)NC(=O)Nc1nc(OCC(F)(F)F)nc(N(C)C)n1 [Triflusulfuron-methyl]

— the RepoRT retention time repository (doi:10.1021/acs.analchem.2c02893)
